In BindingDB's records for doi:10.7270/Q2P26WT9 (The Scripps Research Institute Molecular Screening Center, 2014) one finds IC50 data, which are given here for 3 compounds.

Bounds are passed on as bounds.

By IC50 is commonly meant the concentration that inhibits the measured activity by half. Low values mean inhibition by little substance, high ones a need for much substance.

For this experiment, the target named is T1, RNA-editing ligase 1, mitochondrial (Trypanosoma brucei brucei, UniProt P86926).
T1 sequence (P86926 whole entry): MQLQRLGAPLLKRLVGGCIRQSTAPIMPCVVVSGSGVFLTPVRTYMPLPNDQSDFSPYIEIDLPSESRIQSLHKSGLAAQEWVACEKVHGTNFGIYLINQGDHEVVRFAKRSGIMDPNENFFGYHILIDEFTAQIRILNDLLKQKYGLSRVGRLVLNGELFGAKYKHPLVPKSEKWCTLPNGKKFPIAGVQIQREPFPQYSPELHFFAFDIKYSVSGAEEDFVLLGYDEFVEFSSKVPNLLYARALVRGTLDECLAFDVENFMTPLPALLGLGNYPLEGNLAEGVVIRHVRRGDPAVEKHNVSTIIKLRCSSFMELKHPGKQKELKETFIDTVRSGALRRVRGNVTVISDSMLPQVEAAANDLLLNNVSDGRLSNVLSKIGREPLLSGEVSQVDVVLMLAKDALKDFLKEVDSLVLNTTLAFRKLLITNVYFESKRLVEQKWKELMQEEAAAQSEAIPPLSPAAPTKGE
The experiment is described as follows: inhibition of trypanosome RNA editing ligase – biochemical, fluorescence, Trypanosoma brucei, dose response (AID 1117295).
`Oc1ccccc1CN=Nc1cc(N2CCCC2)nc(N2CCCC2)n1` [(6E)-6-[[[2,6-bis(1-pyrrolidinyl)-4-pyrimidinyl]hydrazo]methylidene]-1-cyclohexa-2,4-dienone]: the IC50 was > 96.6 µM. `COc1ccc(Cn2c(Nc3cc(Cl)ccc3OC)c3[nH]cccc-3c2=O)cc1` [7-[(5-chloranyl-2-methoxy-phenyl)amino]-6-[(4-methoxyphenyl)methyl]-7H-pyrrolo[3,4-b]pyridin-5-one] yielded an IC50 of 16.1 µM. The compound `NC(=NNC=c1ccc(=C2C=CC(=O)C(C(=O)O)=C2)o1)N[N+](=O)[O-]` [5-(5-{2-[amino(nitroimino)methyl]carbonohydrazonoyl}-2-furyl)-2-hydroxybenzoic acid] returned an IC50 of 21.2 µM.
